The source of these data is ChEMBL document CHEMBL3621186, “Design, synthesis and antitumor activity of non-camptothecin topoisomerase I inhibitors” (Bioorg Med Chem Lett, 2015).

Assay [1] deals with PC-3. Nature of the assay: Cytotoxicity against human PC3 cells assessed as inhibition of cell proliferation at 10 uM by MTT assay relative to control. The class given is functional. (In general: Tetrazolium dyes change colour on reduction, which living cells bring about.)
Assay [2] relates to U-87 MG. In words: Cytotoxicity against human U87MG cells assessed as inhibition of cell proliferation at 10 uM by MTT assay relative to control. Type of assay: functional, U-87MG ATCC.
Assay [3] has as its system HepG2. In words: Cytotoxicity against human HepG2 cells assessed as inhibition of cell proliferation at 10 uM by MTT assay relative to control. The class given is functional.
For assay [4], the system named is HCT-116. Nature of the assay: Cytotoxicity against human HCT116 cells assessed as inhibition of cell proliferation at 10 uM by MTT assay relative to control. Type of assay: functional.
In assay [5] the test system is SK-OV-3. In words: Cytotoxicity against human SKOV3 cells assessed as inhibition of cell proliferation at 10 uM by MTT assay relative to control. The class given is functional.
In assay [6] the test system is HepG2. Nature of the assay: Cytotoxicity against human HepG2 cells assessed as inhibition of cell proliferation by MTT assay. The class given is functional, cell-based.
Assay [7] has as its system PC-3. In words: Cytotoxicity against human PC3 cells assessed as inhibition of cell proliferation by MTT assay. The class given is functional, cell-based.
The test system of assay [8] is HCT-116. In words: Cytotoxicity against human HCT116 cells assessed as inhibition of cell proliferation by MTT assay. The class given is functional, cell-based.
Assay [9] relates to U-87 MG. In words: Cytotoxicity against human U87MG cells assessed as inhibition of cell proliferation by MTT assay. The class given is functional, cell-based, U-87MG ATCC.
The target in assay [10] is T1, DNA topoisomerase 1 (Homo sapiens) (UniProt P11387).
T1 sequence (whole entry): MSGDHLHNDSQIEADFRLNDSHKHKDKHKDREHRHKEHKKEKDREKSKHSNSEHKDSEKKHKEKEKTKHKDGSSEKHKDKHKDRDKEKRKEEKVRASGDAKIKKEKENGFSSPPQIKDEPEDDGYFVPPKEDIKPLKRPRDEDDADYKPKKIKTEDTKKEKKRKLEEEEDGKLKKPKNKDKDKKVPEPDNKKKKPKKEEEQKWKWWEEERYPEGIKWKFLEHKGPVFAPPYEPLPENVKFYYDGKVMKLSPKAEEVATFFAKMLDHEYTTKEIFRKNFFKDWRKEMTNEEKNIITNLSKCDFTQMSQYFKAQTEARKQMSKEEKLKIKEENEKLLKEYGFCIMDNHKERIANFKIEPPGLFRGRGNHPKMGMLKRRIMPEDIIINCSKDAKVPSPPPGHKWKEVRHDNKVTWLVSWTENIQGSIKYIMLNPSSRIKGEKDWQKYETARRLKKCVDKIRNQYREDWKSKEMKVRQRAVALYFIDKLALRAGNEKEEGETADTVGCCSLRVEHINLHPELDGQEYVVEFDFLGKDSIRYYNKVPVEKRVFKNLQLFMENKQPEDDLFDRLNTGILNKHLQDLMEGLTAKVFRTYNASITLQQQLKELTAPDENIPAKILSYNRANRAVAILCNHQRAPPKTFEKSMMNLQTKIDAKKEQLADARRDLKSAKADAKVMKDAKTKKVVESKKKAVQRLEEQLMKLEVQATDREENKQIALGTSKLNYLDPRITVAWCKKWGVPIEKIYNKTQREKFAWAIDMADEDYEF
Nature of the assay: Inhibition of recombinant human DNA topoisomerase-1 assessed as relaxation of supercoiled pBR322 DNA at 50 uM after 30 mins by agarose gel electrophoresis.

Assay [11] has as its system SK-OV-3. In words: Cytotoxicity against human SKOV3 cells assessed as inhibition of cell proliferation by MTT assay. The class given is functional, cell-based.

Activity calls are given as the source filed them. No cut-off for these calls is given here.

One may read the inhibition as the relative decrease from the control value, in per cent. As to `O=C(NCCO)C1c2c(O)cccc2-n2c(=O)c3ccccc3c(=O)n21` (stereo not given), the inhibition at 10 µM was 5% in the assay on PC-3 [1]; -0.6% in the assay on U-87 MG [2]; -0.87% in the assay on HepG2 [3]; -0.6% in the assay with HCT-116 [4]; -7.14% in the assay on SK-OV-3 [5].

On to `CN(C)CCCNC(=O)C1c2c(ccc(Br)c2O)-n2c(=O)c3ccccc3c(=O)n21` (stereo not given), for which the inhibition at 10 µM was 6.4% in the assay with PC-3 [1]; -2.5% in the assay on U-87 MG [2]; -7.99% in the assay with HepG2 [3]; -5.7% in the assay on HCT-116 [4]; -4.1% in the assay with SK-OV-3 [5].

`CCOC(=O)C1C2=C(CCCC2=O)n2c(=O)c3ccccc3c(=O)n21` (stereo not given): the inhibition at 10 µM is 11.1% with PC-3 [1]; 1.5% with U-87 MG [2]; 12% in the assay with HepG2 [3]; 3.5% in the assay with HCT-116 [4]; -4.89% with SK-OV-3 [5].

On to `CN(C)CCNC(=O)C1c2c(ccc(Br)c2O)-n2c(=O)c3ccccc3c(=O)n21` (stereo not given), for which the inhibition at 10 µM in the assay on PC-3 [1] was 14.3%; with U-87 MG [2] it was 0.1%; in the assay with HepG2 [3], 3.89%; in the assay with HCT-116 [4], -5.8%; in the assay with SK-OV-3 [5], -6.16%.

With `O=C1c2ccccc2-c2nc3ccccc3nc21`, the inhibition at 10 µM with PC-3 [1] was -8.39%; in the assay with U-87 MG [2], -14.5%; in the assay on HepG2 [3], 53.2%; in the assay with HCT-116 [4], -1.83%; in the assay with SK-OV-3 [5], 10.1%.

For `COc1ccc2nc3c(nc2c1)-c1ccccc1C3=O`, the inhibition at 10 µM was -1.15% in the assay on PC-3 [1]; -7.74% in the assay with U-87 MG [2]; 6.56% in the assay on HepG2 [3]; 16.9% in the assay with HCT-116 [4]; -7.19% in the assay on SK-OV-3 [5].

In the case of `CCOC(=O)C1c2c(ccc(Br)c2O)-n2c(=O)c3ccccc3c(=O)n21` (stereo not given), the inhibition at 10 µM in the assay on PC-3 [1] is 0.8%; in the assay with U-87 MG [2], 4.1%; in the assay on HepG2 [3] it was 2.54%; with HCT-116 [4], 3.3%; with SK-OV-3 [5], -3.43%.

Turning to `O=C(NCCCO)C1c2c(O)cccc2-n2c(=O)c3ccccc3c(=O)n21` (stereo not given), the inhibition at 10 µM is 7.6% in the assay with PC-3 [1]; 2.4% with U-87 MG [2]; -3.15% with HepG2 [3]; -3.8% in the assay on HCT-116 [4]; -5.15% in the assay on SK-OV-3 [5].

Consider `COc1ccc2[nH]c3c(c2c1)C(=O)c1ccccc1C3=O`, for which the inhibition at 10 µM in the assay on PC-3 [1] came out at 8.56%; in the assay with U-87 MG [2], 49%; with HepG2 [3], 26.6%; in the assay with HCT-116 [4], 76.2%; with SK-OV-3 [5] it was 57.6%.

With `CCOC(=O)C1c2c(O)cccc2-n2c(=O)c3ccccc3c(=O)n21` (stereo not given), the inhibition at 10 µM with PC-3 [1] was 4.9%; with U-87 MG [2], 1.9%; in the assay with HepG2 [3], 11.2%; in the assay on HCT-116 [4], 0.4%; with SK-OV-3 [5] it was -3.97%.

What is called IC50 is the point on the concentration scale where inhibition reaches its midpoint. Take `O=C1c2ccccc2-c2nc3cccnc3nc21`: the inhibition at 10 µM amounted to 52.7% in the assay on PC-3 [1]; 20.8% with U-87 MG [2]; 55.4% with HepG2 [3]; 71.9% in the assay with HCT-116 [4]; 13.2% in the assay with SK-OV-3 [5]. Also, the IC50 with HepG2 [6] was 33800 nM; with PC-3 [7], 4380 nM; in the assay with HCT-116 [8], 44600 nM.

With `O=C1c2ccccc2-c2nc3ccc(C(F)(F)F)cc3nc21`, the inhibition at 10 µM in the assay with PC-3 [1] is 15.9%; in the assay on U-87 MG [2], -15.6%; in the assay with HepG2 [3], 43.8%; in the assay on HCT-116 [4] it was 17.2%; with SK-OV-3 [5], 14.2%.

For the molecule `O=C1c2ccccc2-c2nc3ncccc3nc21`, the inhibition at 10 µM was 36.2% in the assay on PC-3 [1]; -23.3% with U-87 MG [2]; 15.2% with HepG2 [3]; 1.49% in the assay on HCT-116 [4]; 2.89% in the assay with SK-OV-3 [5].

`O=C1c2ccccc2-c2nc3cc(C(F)(F)F)ccc3nc21`: the inhibition at 10 µM in the assay on PC-3 [1] was -1.15%; in the assay on U-87 MG [2] it was -7.67%; in the assay on HepG2 [3], 42.9%; in the assay on HCT-116 [4], 12.2%; in the assay on SK-OV-3 [5], -0.82%.

On to `CN(C)CCCn1c2c(c3c4ccccc4c(O)cc31)C(=O)c1ccccc1C2=O`, for which the inhibition at 10 µM in the assay with PC-3 [1] is 59.6%; in the assay on U-87 MG [2] it was 86%; with HepG2 [3] it was 88%; with HCT-116 [4], 91.2%; with SK-OV-3 [5], 77.4%. Also, the IC50 with U-87 MG [9] came out at 325 nM; with HepG2 [6] it was 1970 nM; in the assay with PC-3 [7], 612 nM; with SK-OV-3 [11] it was 783 nM; with HCT-116 [8] it was 996 nM. Further, the inhibition entry in [10] was “Active”.

With `O=C(NCCCO)C1c2c(ccc(Br)c2O)-n2c(=O)c3ccccc3c(=O)n21` (stereo not given), the inhibition at 10 µM was 5.3% with PC-3 [1]; -4.7% with U-87 MG [2]; -8.92% in the assay on HepG2 [3]; 5.4% in the assay on HCT-116 [4]; -4.25% with SK-OV-3 [5].

Regarding `COc1ccc2nc3c(nc2c1)C(=O)c1ccccc1-3`, the inhibition at 10 µM in the assay on PC-3 [1] is -4.44%; in the assay on U-87 MG [2], -14.4%; with HepG2 [3], 14.7%; with HCT-116 [4], 8.68%; with SK-OV-3 [5] it was 8.07%.

Turning to `CN(C)CCCNC(=O)C1c2c(O)cccc2-n2c(=O)c3ccccc3c(=O)n21` (stereo not given), the inhibition at 10 µM in the assay with PC-3 [1] is 11.1%; in the assay with U-87 MG [2], -4.7%; in the assay on HepG2 [3], -8.92%; in the assay on HCT-116 [4], -4.5%; with SK-OV-3 [5], -4.01%.

On to `Cc1ccc2nc3c(nc2c1)C(=O)c1ccccc1-3`, for which the inhibition at 10 µM in the assay on PC-3 [1] is -8.92%; in the assay with U-87 MG [2], -13.9%; in the assay on HepG2 [3], 6.44%; with HCT-116 [4], 6.32%; in the assay with SK-OV-3 [5], 11.2%.

Take `O=C1c2ccccc2-c2nc3cc(F)ccc3nc21`: the inhibition at 10 µM in the assay with PC-3 [1] was 2.65%; in the assay with U-87 MG [2], -13.2%; with HepG2 [3], 50.5%; with HCT-116 [4], 22.7%; with SK-OV-3 [5] it was 9.6%.

Consider `O=C(NCCO)C1c2c(ccc(Br)c2O)-n2c(=O)c3ccccc3c(=O)n21` (stereo not given), for which the inhibition at 10 µM is 6.5% in the assay on PC-3 [1]; 0.4% with U-87 MG [2]; 15.1% in the assay with HepG2 [3]; 3.7% in the assay on HCT-116 [4]; -4.34% in the assay with SK-OV-3 [5].

With `CN(C)CCn1c2c(c3c4ccccc4c(O)cc31)C(=O)c1ccccc1C2=O`, the inhibition at 10 µM worked out at 66.5% in the assay with PC-3 [1]; 78.8% in the assay on U-87 MG [2]; 88.2% with HepG2 [3]; 92% with HCT-116 [4]; 82.4% in the assay on SK-OV-3 [5]. For the same molecule, the IC50 in the assay with U-87 MG [9] stood at 169 nM; in the assay on HepG2 [6], 844 nM; in the assay on PC-3 [7], 389 nM; in the assay with SK-OV-3 [11] it was 1010 nM; with HCT-116 [8] it was 706 nM. Moreover, the inhibition result in assay [10] was “Active”.

For the molecule `CN(C)CCNC(=O)C1c2c(O)cccc2-n2c(=O)c3ccccc3c(=O)n21` (stereo not given), the inhibition at 10 µM in the assay with PC-3 [1] was 4%; with U-87 MG [2], 1.1%; in the assay with HepG2 [3], -2.82%; in the assay on HCT-116 [4], -4.2%; with SK-OV-3 [5] it was -1.46%.

Turning to `O=C1c2ccccc2-c2nc3cc4ccccc4cc3nc21`, the inhibition at 10 µM was 11.8% in the assay on PC-3 [1]; -11.5% in the assay on U-87 MG [2]; 2.82% in the assay on HepG2 [3]; 7.32% with HCT-116 [4]; -8.16% in the assay with SK-OV-3 [5].
